{"source": "paper PMC8604667", "about": "(International Journal of Pharmaceutics: X, 2021)", "origin": "cited, not measured here", "key": {"[1]": {"settings": "ref Venditto and Simanek, 2010"}, "P-glycoprotein": {"tested_on": "P-glycoprotein", "settings": "ref Takemoto et al., 2006; Negi et al., 2013"}}}
{"smiles": "CC[C@@]1(O)C(=O)OCc2c1cc1n(c2=O)Cc2cc3ccccc3nc2-1", "note": "[camptothecin, Camptothecin]", "values": [{"measurement": "pH at which lactone and carboxylate forms co-exist at 50%", "setting": "[1]", "result": 6.65}, {"measurement": "P-glycoprotein substrate", "setting": "P-glycoprotein", "result": "P-glycoprotein substrate"}]}
